Where two headings read alike, the source gives them in different places.

The target of this test is T1, SIRT1 (Homo sapiens, UniProt Q96EB6).
T1 sequence (Q96EB6 1-747): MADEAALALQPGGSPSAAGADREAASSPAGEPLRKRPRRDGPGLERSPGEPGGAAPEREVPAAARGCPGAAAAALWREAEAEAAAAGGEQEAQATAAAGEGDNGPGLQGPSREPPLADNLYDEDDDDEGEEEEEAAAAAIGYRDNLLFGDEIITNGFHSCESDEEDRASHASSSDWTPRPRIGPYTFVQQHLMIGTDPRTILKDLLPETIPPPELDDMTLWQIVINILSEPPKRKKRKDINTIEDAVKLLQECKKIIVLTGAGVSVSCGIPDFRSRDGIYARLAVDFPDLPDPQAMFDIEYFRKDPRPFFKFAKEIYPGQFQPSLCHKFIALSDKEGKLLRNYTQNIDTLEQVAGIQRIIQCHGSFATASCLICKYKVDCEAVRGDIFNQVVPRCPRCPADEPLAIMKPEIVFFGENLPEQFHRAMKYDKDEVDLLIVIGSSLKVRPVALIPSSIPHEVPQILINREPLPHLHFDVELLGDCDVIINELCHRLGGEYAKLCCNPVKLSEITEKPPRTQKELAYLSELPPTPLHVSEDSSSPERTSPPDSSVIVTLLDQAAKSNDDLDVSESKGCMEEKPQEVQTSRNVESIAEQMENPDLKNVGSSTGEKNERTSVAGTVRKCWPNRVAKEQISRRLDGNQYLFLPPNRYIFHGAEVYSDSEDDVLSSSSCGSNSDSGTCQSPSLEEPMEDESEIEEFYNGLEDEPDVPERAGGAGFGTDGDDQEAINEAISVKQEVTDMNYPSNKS
As to the kind of experiment: Trp mass spectrometry assay of SIRT1 activation (Ac-R-H-K-K(Ac)-W-NH2 peptide). It counts as biochemical. The conditions noted are these: for Emax: 25 min, read-out: TRP MAX RESP (percent maximum fold activation). In outline: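 Mass spectrometry read-out (OAADPR formed, or deacetylated Trp peptide) after a 25 min NAD-dependent deacetylation by E. coli-expressed His-SIRT1, stopped with formic acid.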

Setting [1] is: Trp peptide 0.5 μM, 120 μM βNAD+, 10 nM SIRT1, 25 min at 25° C., relative to control (100%).
The mark [2] stands for this setting: Trp peptide 0.5 μM, 120 μM βNAD+, 10 nM SIRT1, 25 min at 25° C.

For the compound `Cc1nc(NC(=O)N2c3nc(C(=O)N[C@H](C)C(F)(F)F)ccc3N3CC[C@H]2C3)co1` [Example 25, (4S)—N5-(2-methyloxazol-4-yl)-N7-((R)-1,1,1-trifluoropropan-2-yl)-3,4-dihydro-1,4-methanopyrido[2,3-b][1,4]diazepine-5,7(2H)-dicarboxamide], the Emax under setting [1] was more than 150%. The “TRP Activity (EC1.5, concentration of test compound that results in 150% activation of SIRT1)” value under setting [2] is reported as “A (EC1.5<1 μM)”.
With `CC[C@H](C)NC(=O)c1ccc2c(n1)N(C(=O)Nc1ccccn1)[C@H]1CCN2C1` [Example 26, (4S)—N7-((S)-sec-butyl)-N5-(pyridin-2-yl)-3,4-dihydro-1,4-methanopyrido[2,3-b][1,4]diazepine-5,7(2H)-dicarboxamide], the Emax under setting [1] was more than 150%. Further, the “TRP Activity (EC1.5, concentration of test compound that results in 150% activation of SIRT1)” value under setting [2] is “A (EC1.5<1 μM)”.
In the case of `O=C(NC1CCCCC1)c1ccc2c(n1)N(C(=O)Nc1ccccn1)[C@H]1CCN2C1` [Example 27, (4S)—N7-cyclohexyl-N5-(pyridin-2-yl)-3,4-dihydro-1,4-methanopyrido[2,3-b][1,4]diazepine-5,7(2H)-dicarboxamide], the Emax was more than 150%. For the same compound, under setting [2], the “TRP Activity (EC1.5, concentration of test compound that results in 150% activation of SIRT1)” value is reported as “A (EC1.5<1 μM)”.
Take `O=C(NCC1(CO)CC1)c1ccc2c(n1)N(C(=O)Nc1ccccn1)[C@H]1CCN2C1` [Example 28, (4S)—N7-((1-(hydroxymethyl)cyclopropyl)methyl)-N5-(pyridin-2-yl)-3,4-dihydro-1,4-methanopyrido[2,3-b][1,4]diazepine-5,7(2H)-dicarboxamide]: the Emax under setting [1] is more than 150%. Also, under setting [2], the “TRP Activity (EC1.5, concentration of test compound that results in 150% activation of SIRT1)” value is “B (EC1.5 1-25 μM)”.
For `CC(C)[C@@H](NC(=O)c1ccc2c(n1)N(C(=O)Nc1ccccn1)[C@H]1CCN2C1)C(F)(F)F` [Example 29, (4S)—N5-(pyridin-2-yl)-N7-((R)-1,1,1-trifluoro-3-methylbutan-2-yl)-3,4-dihydro-1,4-methanopyrido[2,3-b][1,4]diazepine-5,7(2H)-dicarboxamide], the Emax under setting [1] is more than 150%. Under setting [2], the “TRP Activity (EC1.5, concentration of test compound that results in 150% activation of SIRT1)” value was “A (EC1.5<1 μM)”.
The matching figures for `CC[C@@H](CO)NC(=O)c1ccc2c(n1)N(C(=O)Nc1ccccn1)[C@H]1CCN2C1` [Example 30, (4S)—N7-((S)-1-hydroxybutan-2-yl)-N5-(pyridin-2-yl)-3,4-dihydro-1,4-methanopyrido[2,3-b][1,4]diazepine-5,7(2H)-dicarboxamide]: more than 150% and “A (EC1.5<1 μM)”.
The matching figures for `CC[C@H](NC(=O)c1ccc2c(n1)N(C(=O)Nc1ccccn1)[C@H]1CCN2C1)C(F)(F)F` [Example 31, (4S)—N5-(pyridin-2-yl)-N7-((S)-1,1,1-trifluorobutan-2-yl)-3,4-dihydro-1,4-methanopyrido[2,3-b][1,4]diazepine-5,7(2H)-dicarboxamide]: more than 150% and “A (EC1.5<1 μM)”.
In the case of `CC(C)NC(=O)c1ccc2c(n1)N(C(=O)Nc1ccccn1)[C@H]1CCN2C1` [Example 32, (4S)—N7-isopropyl-N5-(pyridin-2-yl)-3,4-dihydro-1,4-methanopyrido[2,3-b][1,4]diazepine-5,7(2H)-dicarboxamide], the Emax was more than 150%. Also, the “TRP Activity (EC1.5, concentration of test compound that results in 150% activation of SIRT1)” value under setting [2] was “A (EC1.5<1 μM)”.
In the case of `CC[C@@H](C)NC(=O)c1ccc2c(n1)N(C(=O)Nc1ccccn1)[C@H]1CCN2C1` [Example 33, (4S)—N7-((R)-sec-butyl)-N5-(pyridin-2-yl)-3,4-dihydro-1,4-methanopyrido[2,3-b][1,4]diazepine-5,7(2H)-dicarboxamide], the Emax under setting [1] was more than 150%. Also, the “TRP Activity (EC1.5, concentration of test compound that results in 150% activation of SIRT1)” value under setting [2] is given as “A (EC1.5<1 μM)”.
Consider `O=C(NC[C@@H](O)C(F)(F)F)c1ccc2c(n1)N(C(=O)Nc1ccccn1)[C@H]1CCN2C1` [Example 34, (4S)—N5-(pyridin-2-yl)-N7-((R)-3,3,3-trifluoro-2-hydroxypropyl)-3,4-dihydro-1,4-methanopyrido[2,3-b][1,4]diazepine-5,7(2H)-dicarboxamide], for which the Emax under setting [1] was more than 150%. For the same compound, the “TRP Activity (EC1.5, concentration of test compound that results in 150% activation of SIRT1)” value under setting [2] is “A (EC1.5<1 μM)”.
The matching figures for `O=C(NC1CCCC1)c1ccc2c(n1)N(C(=O)Nc1ccccn1)[C@H]1CCN2C1` [Example 35, (4S)—N7-cyclopentyl-N5-(pyridin-2-yl)-3,4-dihydro-1,4-methanopyrido[2,3-b][1,4]diazepine-5,7(2H)-dicarboxamide]: more than 150% and “A (EC1.5<1 μM)”.
Regarding `O=C(NCC1(O)CC1)c1ccc2c(n1)N(C(=O)Nc1ccccn1)[C@H]1CCN2C1` [Example 36, (4S)—N7-((1-hydroxycyclopropyl)methyl)-N5-(pyridin-2-yl)-3,4-dihydro-1,4-methanopyrido[2,3-b][1,4]diazepine-5,7(2H)-dicarboxamide], under setting [1], the Emax was more than 150%. The “TRP Activity (EC1.5, concentration of test compound that results in 150% activation of SIRT1)” value under setting [2] was “B (EC1.5 1-25 μM)”.
For `CC(C)CNC(=O)c1ccc2c(n1)N(C(=O)Nc1ccccn1)[C@H]1CCN2C1` [Example 37, (4S)—N7-isobutyl-N5-(pyridin-2-yl)-3,4-dihydro-1,4-methanopyrido[2,3-b][1,4]diazepine-5,7(2H)-dicarboxamide] the same measures were more than 150% and “A (EC1.5<1 μM)”.
For `O=C(NCC1CC1)c1ccc2c(n1)N(C(=O)Nc1ccc(F)cn1)[C@H]1CCN2C1` [Example 38, (4S)—N7-(cyclopropylmethyl)-N5-(5-fluoropyridin-2-yl)-3,4-dihydro-1,4-methanopyrido[2,3-b][1,4]diazepine-5,7(2H)-dicarboxamide] the same measures were more than 150% and “A (EC1.5<1 μM)”.
On to `O=C(NCCF)c1ccc2c(n1)N(C(=O)Nc1ccccn1)[C@H]1CCN2C1` [Example 39, (4S)—N7-(2-fluoroethyl)-N5-(pyridin-2-yl)-3,4-dihydro-1,4-methanopyrido[2,3-b][1,4]diazepine-5,7(2H)-dicarboxamide], for which the Emax under setting [1] is more than 150%. The “TRP Activity (EC1.5, concentration of test compound that results in 150% activation of SIRT1)” value under setting [2] is given as “A (EC1.5<1 μM)”.
For `CCCNC(=O)c1ccc2c(n1)N(C(=O)Nc1ccccn1)[C@H]1CCN2C1` [Example 40, (4S)—N7-propyl-N5-(pyridin-2-yl)-3,4-dihydro-1,4-methanopyrido[2,3-b][1,4]diazepine-5,7(2H)-dicarboxamide] the same measures were more than 150% and “A (EC1.5<1 μM)”.
For `CC(C)(CO)CNC(=O)c1ccc2c(n1)N(C(=O)Nc1ccccn1)[C@H]1CCN2C1` [Example 41, (4S)—N7-(3-hydroxy-2,2-dimethylpropyl)-N5-(pyridin-2-yl)-3,4-dihydro-1,4-methanopyrido[2,3-b][1,4]diazepine-5,7(2H)-dicarboxamide] the same measures were more than 150% and “B (EC1.5 1-25 μM)”.

The record behind these values is patent US10072011B2, “Substituted bridged urea analogs as sirtuin modulators” (GlaxoSmithKline Intellectual Property (No.2) Limited, priority 2014, dated 2018).
